Reference: the NIST ThermoML archive (doi:10.1021/acs.jced.5b00242)

Legend:
[1] = refractive index (Na D-line) (dimensionless); xn = mol fraction of the nth substance listed; settings: 101 kPa, Liquid, Standard Abbe refractometry
[2] = xn = mol fraction of the nth substance listed; settings: 101 kPa, Liquid; for viscosity: Stabinger Viscometer; for mass density: Vibrating tube method

CCn1cc[n+](C)c1.O=C([O-])[C@@H]1CCCN1 [1-ethyl-3-methyl-1H-imidazolium L-prolinate] + CCn1cc[n+](C)c1.N#C[C-](C#N)C#N
Settings	mass density, [2] [kg/m3]	refractive index, [1]	viscosity, [2] [mPa·s]
293.15 K, x2 = 0	1145.9	1.52291	1928.4
293.15 K, x2 = 0.2501	1131.7	1.52057	731.38
293.15 K, x2 = 0.5002	1116.4	1.5191	183.74
293.15 K, x2 = 0.7501	1100.6	1.51665	49.1
298.15 K, x2 = 0	1142.8	1.52151	1194.6
298.15 K, x2 = 0.2501	1128.4	1.51913	474.82
298.15 K, x2 = 0.5002	1113.1	1.5176	131.11
298.15 K, x2 = 0.7501	1097.2	1.51508	38.6
303.15 K, x2 = 0	1139.6	1.52009	771.51
303.15 K, x2 = 0.2501	1125.1	1.51769	320.94
303.15 K, x2 = 0.5002	1109.8	1.51611	96.6
303.15 K, x2 = 0.7501	1093.8	1.51349	30.96
308.15 K, x2 = 0	1136.4	1.5187	517.61
308.15 K, x2 = 0.2501	1121.8	1.51622	224.85
308.15 K, x2 = 0.5002	1106.6	1.5146	73.15
308.15 K, x2 = 0.7501	1090.4	1.5119	25.29
313.15 K, x2 = 0	1133.2	1.51731	359.21
313.15 K, x2 = 0.2501	1118.7	1.51477	162.54
313.15 K, x2 = 0.5002	1103.3	1.51306	56.72
313.15 K, x2 = 0.7501	1087	1.51033	21
318.15 K, x2 = 0	1130.1	1.51591	256.92
318.15 K, x2 = 0.2501	1115.5	1.51333	120.81
318.15 K, x2 = 0.5002	1100.1	1.51153	44.93
318.15 K, x2 = 0.7501	1083.7	1.50875	17.68
323.15 K, x2 = 0	1127.1	1.51454	188.66
323.15 K, x2 = 0.2501	1112.4	1.51191	92
323.15 K, x2 = 0.5002	1096.8	1.51006	36.25
323.15 K, x2 = 0.7501	1080.3	1.50717	15.08
328.15 K, x2 = 0	1124	1.51315	141.76
328.15 K, x2 = 0.2501	1109.3	1.51046	71.61
328.15 K, x2 = 0.5002	1093.6	1.50858	29.73
328.15 K, x2 = 0.7501	1077	1.50561	13
333.15 K, x2 = 0	1121	1.51177	108.85
333.15 K, x2 = 0.2501	1106.2	1.50899	56.8
333.15 K, x2 = 0.5002	1090.4	1.5071	24.75
333.15 K, x2 = 0.7501	1073.6	1.504	11.32
338.15 K, x2 = 0	1118	1.51035	85.12
338.15 K, x2 = 0.2501	1103.1	1.50752	45.83
338.15 K, x2 = 0.5002	1087.2	1.50564	20.87
338.15 K, x2 = 0.7501	1070.3	1.50249	9.95
343.15 K, x2 = 0	1115	1.50897	67.69
343.15 K, x2 = 0.2501	1100	1.50611	37.55
343.15 K, x2 = 0.5002	1084	1.50412	17.8
343.15 K, x2 = 0.7501	1067	1.50096	8.82
348.15 K, x2 = 0	1112	1.50757	54.73
348.15 K, x2 = 0.2501	1096.9	1.50461	31.2
348.15 K, x2 = 0.5002	1080.8	1.50269	15.35
348.15 K, x2 = 0.7501	1063.8	1.49941	7.87
353.15 K, x2 = 0	1109.1	1.5062	44.89
353.15 K, x2 = 0.2501	1093.8	1.50319	26.24
353.15 K, x2 = 0.5002	1077.7	1.50126	13.37
353.15 K, x2 = 0.7501	1060.5	1.49791	7.07

CCn1cc[n+](C)c1.NCCS(=O)(=O)[O-] [1-ethyl-3-methylimidazolium taurinate] + CCn1cc[n+](C)c1.N#C[C-](C#N)C#N
Settings	mass density, [2] [kg/m3]	refractive index, [1]	viscosity, [2] [mPa·s]
293.15 K, x2 = 0	1255	1.5135	760.89
293.15 K, x2 = 0.2503	1207.7	1.51268	250.33
293.15 K, x2 = 0.5001	1164.8	1.51322	84.5
293.15 K, x2 = 0.7496	1124.1	1.51365	35.42
298.15 K, x2 = 0	1251.5	1.51217	514.67
298.15 K, x2 = 0.2503	1204.4	1.51131	180.68
298.15 K, x2 = 0.5001	1161.4	1.51166	64.77
298.15 K, x2 = 0.7496	1120.6	1.5121	28.77
303.15 K, x2 = 0	1248.1	1.51084	359.36
303.15 K, x2 = 0.2503	1201.1	1.50995	133.6
303.15 K, x2 = 0.5001	1158	1.5102	50.77
303.15 K, x2 = 0.7496	1117.2	1.51054	23.71
308.15 K, x2 = 0	1244.8	1.5095	258.04
308.15 K, x2 = 0.2503	1197.9	1.50858	101.33
308.15 K, x2 = 0.5001	1154.7	1.50871	40.59
308.15 K, x2 = 0.7496	1113.8	1.50894	19.84
313.15 K, x2 = 0	1241.6	1.50816	190.44
313.15 K, x2 = 0.2503	1194.7	1.50716	78.59
313.15 K, x2 = 0.5001	1151.4	1.50723	33.04
313.15 K, x2 = 0.7496	1110.4	1.50736	16.61
318.15 K, x2 = 0	1238.6	1.5068	143.31
318.15 K, x2 = 0.2503	1191.7	1.50578	61.69
318.15 K, x2 = 0.5001	1148.2	1.50574	27.27
318.15 K, x2 = 0.7496	1107.2	1.50576	14.44
323.15 K, x2 = 0	1235.5	1.50543	110.35
323.15 K, x2 = 0.2503	1188.5	1.50436	49.65
323.15 K, x2 = 0.5001	1145	1.50428	22.83
323.15 K, x2 = 0.7496	1103.8	1.5042	12.51
328.15 K, x2 = 0	1232.4	1.50403	86.59
328.15 K, x2 = 0.2503	1185.3	1.50296	40.56
328.15 K, x2 = 0.5001	1141.7	1.50286	19.37
328.15 K, x2 = 0.7496	1100.5	1.50267	10.94
333.15 K, x2 = 0	1229.2	1.5027	69.36
333.15 K, x2 = 0.2503	1182.1	1.50159	33.69
333.15 K, x2 = 0.5001	1138.4	1.50142	16.6
333.15 K, x2 = 0.7496	1097.2	1.50113	9.52
338.15 K, x2 = 0	1226.1	1.50136	56.05
338.15 K, x2 = 0.2503	1179	1.50019	28.15
338.15 K, x2 = 0.5001	1135.2	1.49996	14.4
338.15 K, x2 = 0.7496	1093.9	1.49959	8.62
343.15 K, x2 = 0	1223	1.49997	46.1
343.15 K, x2 = 0.2503	1175.9	1.49878	23.86
343.15 K, x2 = 0.5001	1132	1.49854	12.59
343.15 K, x2 = 0.7496	1090.6	1.4981	7.72
348.15 K, x2 = 0	1219.9	1.4986	38.4
348.15 K, x2 = 0.2503	1172.7	1.49742	20.46
348.15 K, x2 = 0.5001	1128.8	1.49709	11.1
348.15 K, x2 = 0.7496	1087.3	1.49657	6.96
353.15 K, x2 = 0	1216.8	1.49726	32.53
353.15 K, x2 = 0.2503	1169.4	1.49603	17.79
353.15 K, x2 = 0.5001	1125.6	1.49563	9.83
353.15 K, x2 = 0.7496	1083.9	1.49505	6.19
